One may read the IC50 as the concentration that inhibits the measured activity by half. A high value points to a need for much substance.

The results in this text go back to BindingDB's records for patent US20250034122 (Mission Therapeutics, 2025).

The assay addresses T1, Ubiquitin carboxyl-terminal hydrolase 30 (Homo sapiens, UniProt Q70CQ3).
T1 sequence (Q70CQ3 whole entry): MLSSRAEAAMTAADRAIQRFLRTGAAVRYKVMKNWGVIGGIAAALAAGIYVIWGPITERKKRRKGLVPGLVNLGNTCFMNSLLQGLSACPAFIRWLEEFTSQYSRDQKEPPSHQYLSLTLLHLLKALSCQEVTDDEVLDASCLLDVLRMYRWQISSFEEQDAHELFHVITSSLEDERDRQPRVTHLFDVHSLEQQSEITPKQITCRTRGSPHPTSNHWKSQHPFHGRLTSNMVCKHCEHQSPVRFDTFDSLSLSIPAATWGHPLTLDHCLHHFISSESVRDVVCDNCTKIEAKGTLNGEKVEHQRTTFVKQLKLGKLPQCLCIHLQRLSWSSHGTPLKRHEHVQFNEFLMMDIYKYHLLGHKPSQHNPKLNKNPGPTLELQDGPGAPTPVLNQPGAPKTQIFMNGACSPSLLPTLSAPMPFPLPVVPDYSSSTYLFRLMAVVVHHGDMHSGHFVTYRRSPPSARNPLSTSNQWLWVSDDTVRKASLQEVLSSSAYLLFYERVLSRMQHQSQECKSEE
The assay can be described thus: USP30 Biochemical IC50 Assay. As for the experimental part: A typical 8-point dilution series would be 100, 30, 10, 3, 1, 0.3, 0.1, 0.03 μM final.

For `N#CN1C[C@H](NC(=O)C2NC(c3cccc(C(F)(F)F)c3)=CO2)C[C@H]1Cn1cccn1` (stereo partly specified) [US20250034122, Example 30], 11 nM corresponded to half-maximal inhibition (IC50).
